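Each compound was tested at five concentrations against cells in 96-well plates for 48 hours. The concentration for full growth arrest is given as TGI.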
Experiments:
Test in all cases: NCI anticancer screen, dose series, 48 h
CAKI-1 renal = tested on: CAKI-1 renal
SNB-19 CNS = tested on: SNB-19 CNS
PC-3 prostate = tested on: PC-3 prostate
DU-145 prostate = tested on: DU-145 prostate
HL-60(TB) leukemia = tested on: HL-60(TB) leukemia
LOX IMVI melanoma = tested on: LOX IMVI melanoma
UACC-62 melanoma = tested on: UACC-62 melanoma
OVCAR-8 ovarian = tested on: OVCAR-8 ovarian
HOP-62 NSCLC = tested on: HOP-62 NSCLC
SK-MEL-28 melanoma = tested on: SK-MEL-28 melanoma
NCI-H226 lung = tested on: NCI-H226 lung
NCI-H522 lung = tested on: NCI-H522 lung
HOP-92 NSCLC = tested on: HOP-92 NSCLC
A549 NSCLC = tested on: A549 NSCLC
SF-539 CNS = tested on: SF-539 CNS
COLO 205 colon = tested on: COLO 205 colon
SR leukemia = tested on: SR leukemia
CCRF-CEM leukemia = tested on: CCRF-CEM leukemia
MCF7 breast = tested on: MCF7 breast
SN12C renal = tested on: SN12C renal
786-0 renal = tested on: 786-0 renal
HT29 colon = tested on: HT29 colon
RXF 393 renal = tested on: RXF 393 renal
HCT-116 colon = tested on: HCT-116 colon
UO-31 renal = tested on: UO-31 renal
K-562 leukemia = tested on: K-562 leukemia
BT-549 breast = tested on: BT-549 breast
UACC-257 melanoma = tested on: UACC-257 melanoma
U251 CNS = tested on: U251 CNS
IGROV1 ovarian = tested on: IGROV1 ovarian
HS 578T breast = tested on: HS 578T breast
ACHN renal = tested on: ACHN renal
SW-620 colon = tested on: SW-620 colon
HCT-15 colon = tested on: HCT-15 colon
MOLT-4 leukemia = tested on: MOLT-4 leukemia
MALME-3M melanoma = tested on: MALME-3M melanoma
OVCAR-5 ovarian = tested on: OVCAR-5 ovarian
SF-295 CNS = tested on: SF-295 CNS
EKVX NSCLC = tested on: EKVX NSCLC
T-47D breast = tested on: T-47D breast
MDA-MB-435 = tested on: MDA-MB-435
NCI-H460 lung = tested on: NCI-H460 lung
OVCAR-3 ovarian = tested on: OVCAR-3 ovarian
KM12 colon = tested on: KM12 colon
SNB-75 CNS = tested on: SNB-75 CNS
SF-268 CNS = tested on: SF-268 CNS
NCI-H23 lung = tested on: NCI-H23 lung
TK-10 renal = tested on: TK-10 renal
OVCAR-4 ovarian = tested on: OVCAR-4 ovarian
A498 renal = tested on: A498 renal
SK-MEL-2 melanoma = tested on: SK-MEL-2 melanoma
NCI/ADR-RES ovarian = tested on: NCI/ADR-RES ovarian
SK-OV-3 ovarian = tested on: SK-OV-3 ovarian
MDA-MB-231 breast = tested on: MDA-MB-231 breast
RPMI-8226 leukemia = tested on: RPMI-8226 leukemia
M14 melanoma = tested on: M14 melanoma
MDA-N = tested on: MDA-N
HCC-2998 colon = tested on: HCC-2998 colon
SK-MEL-5 melanoma = tested on: SK-MEL-5 melanoma

Measured: TGI

CC(C)=NC(C(=O)O)C(C)(C)S (stereo not given)
> 100 µM: CAKI-1 renal | SNB-19 CNS | PC-3 prostate | DU-145 prostate | HL-60(TB) leukemia | LOX IMVI melanoma | UACC-62 melanoma | OVCAR-8 ovarian | HOP-62 NSCLC | SK-MEL-28 melanoma | NCI-H226 lung | NCI-H522 lung | HOP-92 NSCLC | A549 NSCLC | SF-539 CNS | COLO 205 colon | SR leukemia | CCRF-CEM leukemia | MCF7 breast | SN12C renal | 786-0 renal | HT29 colon | RXF 393 renal | HCT-116 colon | UO-31 renal | K-562 leukemia | BT-549 breast | UACC-257 melanoma | U251 CNS | IGROV1 ovarian | HS 578T breast | ACHN renal | SW-620 colon | HCT-15 colon | MOLT-4 leukemia | MALME-3M melanoma | OVCAR-5 ovarian | SF-295 CNS | EKVX NSCLC | T-47D breast | MDA-MB-435 | NCI-H460 lung | OVCAR-3 ovarian | KM12 colon | SNB-75 CNS | SF-268 CNS | NCI-H23 lung | TK-10 renal | OVCAR-4 ovarian | A498 renal | SK-MEL-2 melanoma | NCI/ADR-RES ovarian | SK-OV-3 ovarian | MDA-MB-231 breast | RPMI-8226 leukemia | M14 melanoma | MDA-N

CC(=O)Nn1c(Cc2ccc(Cl)cc2)nn(C)c1=O
> 100 µM: CAKI-1 renal | SNB-19 CNS | PC-3 prostate | DU-145 prostate | HL-60(TB) leukemia | LOX IMVI melanoma | HCC-2998 colon | UACC-62 melanoma | OVCAR-8 ovarian | HOP-62 NSCLC | SK-MEL-28 melanoma | NCI-H226 lung | NCI-H522 lung | HOP-92 NSCLC | A549 NSCLC | SF-539 CNS | SK-MEL-5 melanoma | COLO 205 colon | SR leukemia | CCRF-CEM leukemia | MCF7 breast | SN12C renal | 786-0 renal | HT29 colon | HCT-116 colon | UO-31 renal | K-562 leukemia | BT-549 breast | UACC-257 melanoma | U251 CNS | IGROV1 ovarian | HS 578T breast | ACHN renal | SW-620 colon | HCT-15 colon | MOLT-4 leukemia | MALME-3M melanoma | OVCAR-5 ovarian | SF-295 CNS | EKVX NSCLC | T-47D breast | MDA-MB-435 | NCI-H460 lung | OVCAR-3 ovarian | KM12 colon | SNB-75 CNS | SF-268 CNS | NCI-H23 lung | TK-10 renal | OVCAR-4 ovarian | A498 renal | SK-MEL-2 melanoma | NCI/ADR-RES ovarian | SK-OV-3 ovarian | MDA-MB-231 breast | RPMI-8226 leukemia | M14 melanoma | MDA-N
